Test results taken from patent publication US6573297B2, “(2-substituted oxyphenyl)alkanamide derivative, hair growth promoter and external composition for skin using the same” (Shiseido Co., Ltd., priority 1999, dated 2003).

test system: C3H/HeNCrj mice; assay: Hair Regrowth Test; assay type: in vivo; settings: 23 days of application; 0.1 ml of 0.1 w/v % ethanol solution on shaved back once a day; average of group (10 mice)
Procedure: By using C3H/HeNCrj mice, whose hair cycle was in resting stage, the experiment was performed according to the method of Ogawa et. al. (Normal and Abnormal Epidermal Differentiation, Edited by M. Seiji and I. A. Bernstein, Pages 159-170, 1982, Todai Shuppan). 10 mice were used in a group and the mice's hair within the area of 3×4 cm of the regions of back was shaved by a clipper and a shaver. 0.1 ml of ethanol (negative contrast) or ethanol solution of the tested compound (0.1 w/v %) was applied on the shaved portion once a day. For hair regrowth effect of the tested compound, the hair regrowth area of mice's region of back was measured and ratio of the hair regrowth area with respect to the shaved area was evaluated as hair regrowth area rate (%).

| SMILES | Hair Regrowth Area Rate |
| --- | --- |
| CCCCCCCCCCCCCCCCCCNC(=O)Oc1ccccc1CCC(=O)NCCCN(C)C [Compound 1, 2-[3-[[3-(Dimethylamino)propyl]amino]-3-oxopropyl]phenyl N-octadecylcarbamate] | 69% |
| CCCCCCCCCCCCCCCCCCNC(=O)Oc1ccccc1CCC(=O)NCCCN(C)C.Cl [Compound 2, 2-[3-[[3-(Dimethylamino)propyl]amino]-3-oxopropyl]phenyl N-octadecylcarbamate hydrochloride] | 10% |

same assay, conditions: 24 days of application; 0.1 ml of 0.1 w/v % ethanol solution on shaved back once a day; average of group (10 mice)

| SMILES | Hair Regrowth Area Rate |
| --- | --- |
| CCCCCCCCCCCCCCCCCCNC(=O)Oc1ccccc1CCC(=O)N1CCN(C)CC1 [Compound 3, 2-[3-(4-Methylpiperazino)-3-oxopropyl]phenyl N-octadecylcarbamate] | 100% |
| CCCCCCCCCCCCCCCCCCNC(=O)Oc1ccccc1CCC(=O)N1CCN(C)CC1.Cl [Compound 4, 2-[3-(4-Methylpiperazino)-3-oxopropyl]phenyl N-octadecylcarbamate hydrochloride] | 100% |
| CCCCCCCCCCCCCCCCCCNC(=O)Oc1ccccc1CCC(=O)NCCCN1CCOCC1 [Compound 5, 2-{3-[(3-Morpholinopropyl)amino]-3-oxopropyl}phenyl N-octadecylcarbamate] | 16% |
| CCCCCCCCCCCCCCCCCCNC(=O)Oc1ccccc1CCC(=O)NCCCN1CCOCC1.Cl [Compound 6, 2-{3-[(3-Morpholinopropyl)amino]-3-oxopropyl}phenyl N-octadecylcarbamate hydrochloride] | 17% |
| CCCCCCCCCCCCCCCCCCOc1ccccc1CCC(=O)NCCCN(C)C.Cl [Compound 8, N-[3-(Dimethylamino)propyl]-3-[2-(octadecyloxy)phenyl]propanamide hydrochloride] | 100% |
| CCCCCCCCCCCCCCCCCCOc1ccccc1CCC(=O)NCCCN1CCOCC1.Cl [Compound 10, N-(3-Morpholinopropyl)-3-[2-(octadecyloxy)phenyl]propanamide hydrochloride] | 38% |
| CCCCCCCCCCCCCCCCCCOc1ccccc1CCC(=O)N1CCN(C)CC1.Cl [Compound 12, 1-(4-Methylpiperazino)-3-[2-(octadecyloxy)phenyl]-1-propanone hydrochloride] | 38% |
